Values joined by “and” are separate entries in the source; they are usually repeats but may differ in a detail not shown here. Equal values may be shown once. Where a name gives a salt, the structure may show the parent alone.
Experiments:
[1] = Equilibrium solubility (shake-flask); conditions: 35.5 °C, pH 6.8, aqueous buffer, thermodynamic from solid
Protocol: For each reported solubility result, one shake-flask experiment was carried out unless otherwise stated. Measurements at pH 2.0 were performed in 0.01 M HCl. Measurements at pH 6.8 were performed in a KH2PO4/K2HPO4 buffer with an ionic strength of 70 mM. For each experiment, the solid, HPLC-purified sample (1.7 - 25 mg) was suspended in 250 - 500 µL of the aqueous buffer in a glass vial. The solution containing solid excess of the sample was then capped and shaken at 220 rpm in an Infors HT Minitron incubator at a defined temperature for 6 hours. Three aliquots (3 × 70 µL) were removed with a fine pipette from each shake-flask experiment, and the saturated solution in these aliquots was separated from precipitate by centrifugation (10000 rpm, 5 min) at the assay temperature. […] The reported values are the mean of three measured concentrations. The error was estimated based on the standard deviation of the three measurements and the uncertainty of the calibration curve. Table 8: Equilibrium solubility of selected prodrugs along with references.

[2] = system: HuH-7 cells; experiment: Cell viability in HuH-7 cells (CellTiter-Blue); format: cell-based, human; conditions: 50 µM, mean of triplicates ± standard deviation
Protocol: In order to assess cytotoxic effects of compounds in cell culture, HuH-7 cells were incubated in presence of these compounds in a 96-well plate for 2 h or 24 h. In order to generate a calibration curve for cell viability, a serial dilution (1:2 dilution series) of cells was seeded into control wells. Measurement of cell viability is based on the assay development using CellTiter-Blue reagent (Resazurin, blue color), which is reduced to resofurin (pink color) by viable cells.
Prior to performing the assay, a 96-well assay plate (F-bottom, transparent, Greiner) containing HuH-7 cells (20,000 cells per well) in culture medium was prepared. […] CellTiter-Blue reagent (1-2 mL) was diluted with cell culture medium (10 mL) in a Falcon tube and prewarmed to 37 °C. The 96-well plate was removed from the incubator, the medium aspirated using a vacuum pump and 100 µL of diluted CellTiter-Blue reagent was added to each well.

[3] = Drug release kinetics (prodrug cleavage) in human blood plasma; format: in vitro ADME; conditions: 37 °C; for half-life: 10 % human plasma in PBS, 50 µM; for half-life at 50 µM: 100 % human plasma
Protocol: Pooled human blood plasma (Biowest, France) and sterile Dulbecco's phosphate buffered saline (PBS) pH 7.3 (Sigma-Aldrich, Germany) were used for all experiments. The blood plasma was aliquoted upon receipt and stored at -20 °C. 10 % solutions were prepared by thawing a plasma aliquot at 2-8 °C, distributing it into plastic vials and diluting with the appropriate volume of sterile PBS. The 10 % and 100 % plasma aliquots were stored at -20 °C and thawed at 2-8 °C directly before the assay was performed. In a thermoblock, a plasma aliquot and 10 µl of a 5 mM prodrug solution in DMSO were prewarmed to 37 °C for 10 min in separate plastic vials. Then, 1000 µl of the prewarmed plasma sample was added to the prodrug solution, and 9×100 µl samples were withdrawn at appropriate time intervals. The enzymatic reaction was quenched by immediate mixing of the samples (100 µl) with acetonitrile (200 µl). Blank samples were prepared by mixing 10 % or 100 % plasma (100 µl) with acetonitrile (200 µl), respectively. Samples of the initial reaction mixture were prepared by adding the 5 mM prodrug solution (1 µl) to a blank sample.
Centrifugation (13,000 rpm, 3 min) of the quenched samples afforded clear supernatants which were transferred to 96 well U-bottom polypropylene plates (Greiner Bio-One, Germany). Analyte quantifications were performed on a Jasco HPLC system equipped with a UV detector and an RP-18 column (Chromolith® Performance RP-18e, 100x4.6 mm) using one of the gradients listed in Table 3. Prodrug degradation was monitored using undiluted supernatant and a 10 min chromatographic method. […] For all samples, the injection volume was 40 µL and the flow was set to 1.0 mL/min. […] Table 3: HPLC settings for quantitative analysis of plasma samples.

[4] = Passive membrane permeation assay (PAMPA); format: in vitro ADME; conditions: pre-coated PAMPA plate, PBS pH 7.4, 200 µM, 25 °C; for R (mass retention) / Pe: 5 h; for Pe / Papp at 5 h, 200 µM: mean ± standard deviation; for Papp at 5 h, 200 µM: read-out: Pe
Protocol: The passive membrane permeability was evaluated with a pre-coated PAMPA plate system (BD Gentest, BD Bioscience, Germany) following the guidelines of the manufacturer and a previous literature report (cf. Kühl et al. Eur. J. Med. Chem. 2022, 240, 114585). Phosphate-buffered saline (PBS) pH 7.4 (Sigma-Aldrich, Germany) was used for all experiments. Analyte concentrations were determined on a Jasco HPLC system equipped with a UV detector and an RP-18 column (Chromolith® Performance RP-18e, 100x4.6 mm) using one of the gradients listed in Table 2. For all samples, the injection volume was 40 µl. Table 2: HPLC settings for the analysis of PAMPA samples.
Prior to performing the assay, the PAMPA plate was warmed to room temperature for 0.5 h. In the donor plate, 300 µL of the 200 µM compound solutions in PBS (4 % dimethyl sulfoxide (DMSO)) were dispensed in triplicate, and in the acceptor plate, 200 µL of PBS buffer were added to all wells. The plates were combined, and the system was incubated at 25 °C for 5 h. Upon completion of the incubation, donor and acceptor plate were separated. The wells were homogeneously mixed with a pipette, and a 100 µl sample of each donor and acceptor well was transferred to 96 well U-bottom polypropylene plates (Greiner Bio-One, Germany) for quantitative HPLC analysis.

[5] = Stability of prodrugs in methanol (1H NMR); format: physicochemical; conditions: CD3OD, ambient temperature, within 18 days
Source text: The stability of the exemplary carboxylic ester 8b in methanol was studied by dissolving a few milligrams of the fumarate ester in CD3OD at ambient temperature and measuring ^1H NMR spectra in appropriate time intervals.

[6] = Prodrug stability in human whole saliva; format: in vitro ADME; conditions: 37 °C, mean of fresh samples of three individuals, classified into three groups
Protocol: Freshly collected saliva and 5 mM stock solutions of the analytes in DMSO were prewarmed to 37 °C for 10 min. Then, 700 µl prewarmed saliva was added to 7 µl of the prodrug stock, and the mixture was incubated at 37 °C. Samples (100 µL) were taken at selected time points (0, 10, 20, 40, 60 min; 2 h or 24 h) and immediately quenched with acetonitrile (200 µl). Blank samples were prepared by mixing saliva (100 µl) with acetonitrile (200 µl). Centrifugation (3,000 rpm, 5 min) of the quenched samples afforded clear supernatants which were transferred to 96 well U-bottom polypropylene plates (Greiner Bio-One, Germany). Analyte quantifications were performed on a Jasco HPLC system equipped with a UV detector and an RP-18 column (Chromolith® Performance RP-18e, 100x4.6 mm) using the gradients listed in Table 4. Samples that gave rise to asymmetric peaks inadequate for quantification were diluted (1:1) with H2O (+0.1 % TFA). The injection volume was 40 µl and the flow was set to 1.0 mL/min. UV detection was performed at 286 nm. […] Table 4: HPLC settings for quantitative analysis of saliva samples.

Compound	solubility thermodynamic at 6 h [1]	Cell Viability in HuH7 at 50 µM, 2 h Incubation [2] [%]	Cell Viability in HuH7 at 50 µM, 24 h Incubation [2] [%]	half-life [3] [min]	R (mass retention) [4] [%]	Pe [4]	Papp at 5 h, 200 µM [4] [×10⁻⁶ cm/s]	initial amount of ester degraded [5]	half-life at 50 µM [6] [min]	half-life at 50 µM [3] [min]
CN(C)CCc1c[nH]c2cccc(OC(=O)C3CC3)c12 [Compound 19c, 4-(cyclopropanecarbonyloxy)-N,N-dimethyltryptamine]	32600 µM and 8900 µg/mL	–	–	–	–	–	–	–	–	–
CCCC(=O)Oc1cccc2[nH]cc(CCN(C)CC)c12 [Compound 8b, 4-Butyryloxy-N-ethyl-N-methyltryptammonium fumarate]	–	88.1 ± 6.0	83.7 ± 1.0	0.64 ± 0.04	4	at least 8 10^-6 cm/s	9.2 ± 0.8	approximately 50%	15 to 60	–
CN(C)CCc1c[nH]c2cccc(OCOC(=O)C(C)(C)C)c12 [Compound 15a, 4-Pivaloyloxymethyloxy-N,N-dimethyltryptammonium fumarate]	–	61.6 ± 6.0	61.6 ±18.4	–	4	9.1 ± 0.5 10^-6 cm/s	–	–	15 to 60	> 300
CCCCCC(=O)Oc1cccc2[nH]cc(CCN(C)CC)c12 [Compound 8c, 4-Hexanoyloxy-N-ethyl-N-methyltryptammonium fumarate, reference compound]	–	30.2 ± 1.0	74.3 ± 8.0	0.66 ± 0.13	7	–	11.8 ± 1	–	< 15	–
CCN(C)CCc1c[nH]c2cccc(OCOC(=O)C(C)(C)C)c12 [Compound 15c, 4-Pivaloyloxymethyloxy-N-ethyl-N-methyltryptammonium fumarate]	–	48.3 ± 16.1	47.1 ± 10.4	–	2	9.7 ± 0.6 10^-6 cm/s	–	–	< 15	> 300
CCN(C)CCc1c[nH]c2cccc(OC(C)=O)c12 [Compound 8a, 4-Acetoxy-N-ethyl-N-methyltryptammonium fumarate, reference compound]	–	88.7 ± 3.0	85.4 ± 3.6	0.69 ± 0.14	4	–	5.6 ± 0.8	–	15 to 60	–

Reference: patent publication EP4592276A1, “NOVEL ACY[…] OF PSILOCIN AND RELATED 4-HYDROXYT[…] BY AN EFFICIENT […] APPROACH” (Universität Heidelberg, priority 2024, dated 2025)
